Source: paper PMC9241695, “Selective Metal Chelation by a Thiosemicarbazone Derivative Interferes with Mitochondrial Respiration and Ribosome Biogenesis in Candida albicans” (Microbiology Spectrum, 2022)
Converted amounts (≈) assume the structure as drawn. Like-named read-outs stand apart in the source and are kept apart here.

Key:
Assay in all cases: Antifungal susceptibility testing, microbroth dilution MIC
Assay type in all cases: cell-based
A. fumigatus AF293 = details: Aspergillus fumigatus, read-out: MIC (μg/mL) against fungi AF293
From the text: (§1) Compound library. The thiosemicarbazone derivatives Triapine and COTI-2 were purchased from Med Chem Express (MCE). The other 87 thiosemicarbazones used in this study were previously synthesized by our collaborators (1, 2). Their structures are shown in Table 1 and Table S1 to help the reader clearly understand the relationship between structure and activity.
(§2) Strains and culture conditions. Clinically derived C. albicans isolates, including G5, F5, and Gu5, were kindly provided by Professor Joachim Morschhäuser of the University of Würzburg. Other clinical C. albicans isolates were kindly donated by Professor Qingguo Qi of Shandong University and Qianfoshan Hospital of Shandong Province Other Candida strains were obtained from Jinan Central Hospital.
(§3) The zap1 mutant and its complemented strain were kindly provided by Professor Aaron P. Mitchell of Carnegie Mellon University (3). The C. neoformans strains used in this study was kindly donated by Professor Guojian Liao of Southwest University and A. fumigatus strain used in this study was provided by Professor Ling Lu of Nanjing Normal University. […]
(§4) Antifungal susceptibility testing. To determine in vitro antifungal activities, the microbroth dilution method was carried out in RPMI1640 medium according to the guidelines of the Clinical and Laboratory Standards Institute (4, 5). The initial concentration in RPMI1640 medium was 1 × 10^3 CFU/mL for the C. albicans and C. neoformans suspensions but 1 × 10^4 CFU/mL for A. fumigatus. The range of final drug concentrations was 0.0156–64 μg/mL. The plates were incubated at35°C for 24 […]
(§5) h (for C. albicans, C. krusei, C. tropicalis, C. parapsilosis) or 48 h (for C. neoformans, A. fumigatus). The MIC was determined based on visible growth inhibition compared with the control. All experiments were performed in duplicate. […]

C. neoformans H99 = details: Cryptococcus neoformans, read-out: MIC (μg/mL) against fungi H99
From the text: as §1, §2, §3, §4, §5

C. albicans SC5314 = details: Candida albicans, read-out: MIC (μg/mL) against fungi SC5314
From the text: as §1, §2
as §3, with “University. Before in vitro and in vivo experiments, all C. albicans strains were grown on YPD agar plates. After culturing at 30°C for 24 h, colonies of each strain were cultured in liquid YPD medium at 30°C with continuous shaking” for “University.”
as §4, §5

SMILES	MIC (A. fumigatus AF293; AF293, 48 h)	MIC (C. neoformans H99; H99, 48 h)	MIC (C. albicans SC5314; SC5314, 24 h)	MIC (A. fumigatus AF293; AF293, standard strain of A. fumigatus, 48 h)	MIC (C. neoformans H99; H99, C. neoformans wild-type strain, 48 h)	MIC (C. albicans SC5314; SC5314, C. albicans wild-type strain, RPMI1640, 35°C, 24 h)
C/C(=N\NC(=S)Nc1cccc(Br)c1)c1ccccn1 [Compound 19q]	1 µg/mL (≈ 2.86 µM)	0.25 µg/mL (≈ 0.716 µM)	0.5 µg/mL (≈ 1.43 µM)			
NC(=S)NN=Cc1ncccc1N [Triapine, 3-aminopyridine-2-carboxaldehyde thiosemicarbazone, reference compound]				32 µg/mL (≈ 164 µM)	4 µg/mL (≈ 20.5 µM)	32 µg/mL (≈ 164 µM)
